Columns and labels:
α-chymotrypsin = molecular target: T1, α-chymotrypsin (Bos taurus, UniProt P00766); experiment: Chymotryptic digestion of apomyoglobin in H2 18O, 18O2-coding of peptides; format: biochemical, Bovine; settings: apomyoglobin 51 nmol, 200 μg α-chymotrypsin, H2 18O pH 8.0, room temperature
T1 construct: purchased Sigma (St. Louis, Mo.); host or cells: bovine pancreas
Method: Chymotryptic Digestion of Apomyoglobin in H2^18O. An apomyglobin (51 nmol) suspension in H2^18O (24 mM Tris/HCl, pH 8.0) was incubated with 200 μg of α-chymotrypsin (bovine pancreas, Sigma) at room temperature. Aliquots were taken at different time intervals for MALDI-FT-ICR analysis.
MALDI-FT-ICR Mass Spectrometric Analysis. Reaction mixtures in H2^18O were diluted with 70:30 acetonitrile:water (0.1% TFA) to obtain a final peptide concentration of about 10 pmol/μl. A 0.6 μL aliquot of this solution was applied on the MALDI stainless steel probe followed by 0.6 μL of a solution of 2,5-dihydroxybezoic acid (500 mM) in 70:30 acetonitrile:water (0.1% TFA). The mixture was gently stirred during the crystallization. An FT-ICR instrument equipped with a 4.7 T actively shielded magnet (lonspec Co., Irvine, Calif.) was used for this study. An external MALDI ion source was differentially pumped. A pulsed (5 ns width) Nd:YAG laser (Minilite, Contimuum, Inc., Santa Clara, Calif.) was operated at 355 nm (triple of its fundamental frequency). The laser energy was attenuated by adjusting the angle between two Glan-laser prism polarizers (Karl-Lambrecht Co., Chicago, Ill.). Ions were injected into the ICR cylindrical cell by an RF-only quadrupole ion guide. A 4 ms nitrogen pulse was used to trap the ions and remove their excess of kinetic energy. After a 4 s delay, the ions were excited by a 35 Vb-p RF sweep during 4 ms (29-180 kHz). The image signal was amplified and digitized at an acquisition rate of 2 MHz (512 k data point) resulting in the recording of a 262.1 ms time domain, which gave a typical mass resolution of 10 000. […] In mass spectra, heights for the monoisotope peaks for peptides, the peaks with masses 2 Da higher, and the peaks with masses 4 Da higher were measured as peak intensities I0, I2, and I4, respectively.
Exchange Reactions Catalyzed by Chymotrypsin. Chymotryptic proteolysis of apomyoglobin in H2^18O was analyzed by MALDI-FT-ICR. […]

trypsin [1] = molecular target: T2, trypsin (Sus scrofa, UniProt P00761); experiment: Control experiment: non-Arg/Lys-terminated peptides incubated with trypsin in H2 18O; format: biochemical; settings: mixture VEPIPY 710 μM and YGGFM 500 μM, 200 mM Tris, 2 μg trypsin, H2 18O pH 8.5, room temperature overnight
T2 construct: purchased Promega (Madison, Wis.)
Method: For the process of ^18O2-coding of Arg- and Lys-terminated peptides through two exchange reactions, a sequential mechanism (FIG. 7) is supported by the kinetics shown in FIG. 5. Trypsin-catalyzed exchange reactions are substrate-specific; only peptides with Arg or Lys in the P1 position can undergo exchanges catalyzed by trypsin. As a control experiment, a mixture of VEPIPY (710 μM) and YGGFM (500 μM) was incubated with 200 mM Tris and 2 μg trypsin in H2^18O (pH 8.5) at room-temperature overnight. […] Thus, there was not significant catalysis from either the enzyme or the buffer.

trypsin [2] = molecular target: T2, trypsin; experiment: Kinetics of 16O-to-18O exchange of YGGFMK and YGGFMR catalyzed by trypsin (MALDI-FT-ICR-MS); format: biochemical
Method: Kinetics Measurement of ^16O-to-^18O Exchange of YGGFMK and YGGFMR Catalyzed by Trypsin. […] Aliquots of the reaction mixture were taken at different time intervals for the first 10% of reactant conversion. The reaction temperature was maintained at 26±1° C., and the ionic strength was controlled by NaCl (45 mM). The reaction volume was typically 20 μL. The change of the peak intensity for the peptide was monitored by MALDI-FT-ICR-MS. Substrate concentrations used in the kinetics studies ranged between 0.2 KM and 5 KM, and measurements were duplicated for each substrate concentration. At high concentrations (>10 mM) of YGGFMK, acetonitrile (10% v/v) was used to increase the substrate solubility in reaction buffer. A full course of ^16O-to-^18O exchange reaction of YGGFMR was also recorded using similar conditions.
MALDI-FT-ICR Mass Spectrometric Analysis. Reaction mixtures in H2^18O were diluted with 70:30 acetonitrile:water (0.1% TFA) to obtain a final peptide concentration of about 10 pmol/μl. A 0.6 μL aliquot of this solution was applied on the MALDI stainless steel probe followed by 0.6 μL of a solution of 2,5-dihydroxybezoic acid (500 mM) in 70:30 acetonitrile:water (0.1% TFA). The mixture was gently stirred during the crystallization. An FT-ICR instrument equipped with a 4.7 T actively shielded magnet (lonspec Co., Irvine, Calif.) was used for this study. An external MALDI ion source was differentially pumped. A pulsed (5 ns width) Nd:YAG laser (Minilite, Contimuum, Inc., Santa Clara, Calif.) was operated at 355 nm (triple of its fundamental frequency). The laser energy was attenuated by adjusting the angle between two Glan-laser prism polarizers (Karl-Lambrecht Co., Chicago, Ill.). Ions were injected into the ICR cylindrical cell by an RF-only quadrupole ion guide. A 4 ms nitrogen pulse was used to trap the ions and remove their excess of kinetic energy. After a 4 s delay, the ions were excited by a 35 Vb-p RF sweep during 4 ms (29-180 kHz). The image signal was amplified and digitized at an acquisition rate of 2 MHz (512 k data point) resulting in the recording of a 262.1 ms time domain, which gave a typical mass resolution of 10 000. The average of single time domain transients (more than 10 times) was Fourier transformed into the corresponding frequency domain (two zero fills and Blackman apodization).
MALDI-FT-ICR Mass Spectrometric Analysis of ^16O-to-^18O Exchange Reactions. […] The residual ^16O content in H2^18O (less than 5%) was not considered in formulation of the equation.
Kinetic Constants for ^16O-to-^18O Exchange of YGGFMK and YGGFMR Catalyzed by Trypsin. […] The time course for the first 10% of the reaction was limited to less than 30 min by adjusting the concentration of trypsin.
From the plots, values for kcat's, KM's, and kcat/KM's were calculated.

[3] = trypsin-catalyzed 16O-to-18O exchange, double reciprocal plot, pH 8.0, 26±1° C.

T2 sequence (P00761 9-231): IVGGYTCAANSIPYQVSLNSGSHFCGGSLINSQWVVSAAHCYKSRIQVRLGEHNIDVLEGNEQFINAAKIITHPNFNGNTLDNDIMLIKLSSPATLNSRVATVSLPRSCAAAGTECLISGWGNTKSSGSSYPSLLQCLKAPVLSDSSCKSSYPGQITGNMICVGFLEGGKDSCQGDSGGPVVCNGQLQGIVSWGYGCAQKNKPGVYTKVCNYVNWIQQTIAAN

GADAQGAMTKALELF [CT9, Chymotryptic peptide of apomyoglobin]
time to complete 18O2-coding (α-chymotrypsin): 20 h

RNDIMKY [CT10, Chymotryptic peptide of apomyoglobin]
time to complete 18O2-coding (α-chymotrypsin): 1.5 h

TGHPETLEKF [CT4, Chymotryptic peptide of apomyoglobin]
time to complete 18O2-coding (α-chymotrypsin): 3.5 h

VEPIPY
exchange of oxygens (trypsin [1]): No detectable exchange of oxygens

YGGFM
exchange of oxygens (trypsin [1]): No detectable exchange of oxygens

YGGFMK
Km (trypsin [2]; [3]): 4400 ± 700 µM | kcat (trypsin [2]; [3]): 2800 ± 300 min⁻¹ | Km (trypsin [2]; trypsin-catalyzed exchange): 4400 µM | kcat (trypsin [2]; trypsin-catalyzed exchange): 2800+−300 per min

YGGFMR
Km (trypsin [2]; [3]): 1300 ± 300 µM | kcat (trypsin [2]; [3]): 3500 ± 500 min⁻¹ | Km (trypsin [2]; trypsin-catalyzed exchange): 1300 µM | kcat (trypsin [2]; trypsin-catalyzed exchange): 3500+−500 per min
